In patent publication US20250332173A1, “COMPOUNDS AND METHODS FOR MODULATING NUCLEIC ACID SPLICING” (REMIX THERAPEUTICS INC., priority 2021, published 2025):
Like-named read-outs stand apart in the source and are kept apart here.

Legend:
Assay type in all cases: cell-based, human
[1] = test system: Target C; test: HiBiT protein abundance assay, Target C (Promega Nano-Glo HiBiT Lytic Detection System, knock-in K562 cell line); settings: Homo sapiens, K562, 24 h, HiBiT K562 cell line, 24 hours, top dose 10 μM; read-out: Effect on protein abundance, Target C (IC50 category)
How it was run: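 Knock-in K562 cells carrying HiBiT-tagged Target C, 10,000 per well, treated 24 h at 37 °C with 10-point threefold dilutions (top 10 μM final, ≤0.25% DMSO). Lytic HiBiT luminescence read; response normalised to unmodified K562 and DMSO controls, four-parameter fit interpolated at 50% for IC50.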

[2] = test system: MYB mRNA; test: RT-qPCR splicing assay, MYB canonical junction (CJ) and alternative junction (AJ) mRNA; settings: Homo sapiens; for AC50: increase in MYB alternative junction (AJ) mRNA, read-out: MYB AJ AC50
How it was run: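 A673 cells (normalized to PPIA) or K562 cells (normalized to GAPDH or GUSB) were treated 24 h at 37 °C with an 11-point 3-fold dilution series, top 10 uM, DMSO ≤0.25%. Cell lysates went to one-step RT-qPCR measuring canonical- and alternative-junction MYB or HTT transcripts.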

[3] = test system: SMN2 mRNA; test: RT-qPCR splicing assay, SMN2 canonical junction (CJ) mRNA; settings: Homo sapiens; Table 5 panel; canonical junction qPCR; compound concentration having 50% response in CJ decrease; read-out: SMN2 IC50 (decrease in CJ mRNA levels)
How it was run: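 A673 or K562 cells were treated for 24 h at 37 °C with compound in 11-point 3-fold dilution (top 10 uM final, DMSO ≤0.25%). Lysates then went to one-step RT-qPCR measuring canonical-junction mRNA, normalized to GAPDH, GUSB or PPIA.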

[4] = Table 5 panel, canonical junction qPCR, compound concentration having 50% response in CJ decrease, read-out: MYB IC50 (decrease in CJ mRNA levels)
[5] = decrease in MYB canonical junction (CJ) mRNA, RT-qPCR, read-out: MYB CJ IC50

IC50 [1] [µM] | IC50 [2, 4] [µM] | IC50 [2, 5] [µM] | IC50 [3] [µM] | SMILES | AC50 ([2]; RT-qPCR) [µM]
< 0.1 | < 0.1 | < 0.1 | < 0.1 | Cc1cn2nc(-c3cc(F)c4c(=O)n(C5CCN(C)CC5)ccc4c3)cc(C)c2n1 [Compound 400, 6-(2,8-dimethylimidazo[1,2-b]pyridazin-6-yl)-8-fluoro-2-(1-methylpiperidin-4-yl)isoquinolin-1(2H)-one] | < 0.1
> 10 | > 10 | > 10 | 0.1 to 1 | Cc1nc2c(F)cc(-c3cc(F)c4c(=O)n(C5CCNC6(CC6)C5)ccc4c3)cc2n1C (stereo not shown) [Compound 430, 8-fluoro-6-(4-fluoro-1,2-dimethyl-1H-benzo[d]imidazol-6-yl)-2-(4-azaspiro[2.5]octan-7-yl)isoquinolin-1(2H)-one] | > 10

More lines, now with the values behind:

SMILES | IC50 [1] [µM] | IC50 [2, 4] [µM] | IC50 [2, 5] [µM] | IC50 [3] [µM] | AC50 ([2]; RT-qPCR) [µM]
Cc1cc(-c2ccc3c(=O)n([C@@H]4CCNC[C@H]4F)ncc3c2)cc2cn(C)nc12 [Compound 378] | 1 to 10 | 1 to 10 | 1 to 10 | 0.1 to 1 | 1 to 10
Cc1cc(-c2ccc3c(=O)n(C4CCNCC4)cnc3c2)cc2cn(C)nc12 [Compound 174] | 0.1 to 1 | 0.1 to 1 | 0.1 to 1 | < 0.1 | 0.1 to 1
Cn1cc2c(n1)CCN(c1ccc3c(=O)n(C4CCNCC4)ccc3c1)C2 [Compound 509, 6-{2-methyl-4H,6H,7H-pyrazolo[4,3-c]pyridin-5-yl}-2-(piperidin-4-yl)isoquinolin-1-one] | > 10 | > 10 | > 10 | 1 to 10 | > 10
